Laboratory results from paper PMC6385087, “New Multitarget Hybrids Bearing Tacrine and Phenylbenzothiazole Motifs as Potential Drug Candidates for Alzheimer’s Disease” (Molecules, 2019).

What was measured:
[1] = system: SH-SY5Y cells; test: Neuroprotection against ferrous sulfate/L-ascorbic acid toxicity, MTT reduction; type: cell-based, human; conditions: Fe/Asc 500 μM/5 mM, 24 h after 1 h pre-treatment, compounds: 16 2.5 µM, 17 0.5 µM, 14 and 15 0.2 µM, 19 and 18 1 µM
Method: The neuroprotective effect of TAC-PhBTA conjugates was evaluated using SH-SY5Y cells treated with Aβ1–42 peptides or ascorbate/iron. For each compound, a dose-response curve was performed to select a non-toxic concentration in order to analyze its neuroprotective effect (Figure 3).
SH-SY5Y human neuroblastoma cell line (ATCC-CRL-2266) grown in Dulbecco’s modified Eagle’s medium (DMEM) obtained from Gibco-Invitrogen (Life Technologies Ltd., Liverpool, UK) with 10% heat inactivated fetal calf serum, containing 50 U/mL penicillin, and 50 μg/mL streptomycin, under a humidified atmosphere of 95% air-5% CO2 at 37 °C. Cells were plated at 0.12 × 10^6 cells/mL for cell viability assay. The tested compounds (16, 17, 14, 15, 19 and 18) were dissolved in DMSO at a concentration of 25 mM and aliquots were stored at −20 °C. We performed a dose-response screening (from 0.2 μM to 5 μM) in order to choose the highest non-toxic concentration. […]
Cell viability was determined by a MTT (3-(4,5-dimethylthiazol-2-yl)-2,5-diphenyltetrazolium bromide) reduction test. […] The absorbance was measured at 570 nm. Cell reduction ability was expressed as a percentage of untreated control cells.
All data were expressed as mean ± S.E.M. of at least three independent experiments performed in duplicates. […]

[2] = Solubility in methanol; type: physicochemical

SMILES: COc1cc(-c2nc3ccccc3s2)ccc1OCC(=O)NCCCNc1c2c(nc3ccccc13)CCCC2 [compound 16, 2-(4-(Benzo[d]thiazol-2-yl)-2-methoxyphenoxy)-N-(3-((1,2,3,4-tetrahydroacridin-9-yl)amino)propyl)acetamide]
- Neuroprotective effect against Asc/Fe toxicity (cell viability, MTT) [1]: statistical significant neuroprotective effect
- Solubility in methanol [2]: soluble in methanol
